Experimental data as given in US3937838A, “Orally active bronchospasmolytic compounds and their preparation” (priority 1966, dated 1976).
Entries after “also recorded” stand apart in the source; their conditions may differ.

Columns and labels:
bronchial asthma = assay: Clinical study in asthmatic patients (Example 6); format: in vivo, human
Method: All the patients were hospitalized for severe bronchial asthma. Before the patients were selected for the trial, spirometry was performed before and after isoprenaline inhalations to make sure that their obstruction was at least partly reversible by bronchodilating drugs. The tests were performed when the patients were in a relatively steady state of moderate asthmatic discomfort. Every morning during the trial control measurements of forced expiratory volume in one second (FEV1.0) were made. These values had to be less than 70% of the predicted normal value taking in consideration sex, age and heights. All the patients were under treatment of different drugs for their asthma. Other bronchodilating drugs were withdrawn at least 6 hours before the start of the measurements. Most of the patients were treated with steroids, antibiotics and expectorants before the start of the trial. This regimen was continued unchanged during the trial period.
Twenty-four took part in the study, 10 male and 14 female. Average age was 51 years (range 15-71 years), mean body weight 64 kg (range 44-88 kg.) and height 166 cm (range 150-187 cm).
The trial was performed as a double blind study during three consecutive days with the patients serving as their own control. […] The order of treatment was randomized according to the principle of Latin squares.
Lung function tests were made immediately before the administration of the tablets and after 1, 2, 3, 5 and 7 hours. FEV1.0 was measured using a Vitalograph spirometer. The highest value of three measurements on each occasion was used in the calculations. All the patients had been trained to perform the tests the day before the start of the trial. After 3 and 7 hours, the patients were questioned for side effects. The same, specially trained, nurse assisted throughout the whole investigation.
The "Student's" t-test was used for statistical evaluation of the results. The degree of significance for the differences is given as almost significant (p<0.05^x) significant (p<0.01^xx) and highly significant (p<0.001^xxx).

guinea pig trachea = assay: Bronchospasmolytic effect in vitro (Example 13); settings: based on ED50-values; weight basis; Table 7
Method: The trachea from a guinea pig was dissected out and spirally cut. It was mounted in a water-jacketed bath (37°C.) in Krebs solution and aerated with oxygen (95%) and carbon dioxide (5%). Pilocarpine (2 μg/ml) was added. The load was adjusted to about 2 g and relaxations in the trachea were recorded by means of a Grass force displacement transducer and a Grass polygraph model 5 (see Example 5 above). The cumulative method was used (-)-Epinephrine was used as reference. The comparisons presented in Table 7 are based on ED50 -values.

## CC(C)(C)NCC(O)c1cc(O)cc(O)c1 (racemic) [terbutaline, 1-(3',5'-dihydroxyphenyl)-2-(t-butylamino)-ethanol]
Bronchial asthma; 5 mg terbutaline versus 20 mg orciprenaline, oral
  maximum effect and duration of effect versus orciprenaline: superior to 20 mg of orciprenaline
Bronchial asthma; oral
  circulatory effects: negligible circulatory effects
Bronchial asthma; oral single dose
  time of maximal response (FEV1.0): 3 h
Bronchial asthma; oral, presumably
  duration of action: > 5 h
Bronchial asthma; oral, terbutaline 5.0 mg, orciprenaline 20 mg, FIG. 9
  increase of FEV1.0: clearcut increase of the spirometric values; also recorded: significantly greater than that of orciprenaline; also recorded: effective in relaxing bronchial obstruction in asthmatic patients
Guinea pig trachea
  bronchospasmolytic effect x (-)epinephrine: 0.8 ± 0.1
